Measurements from US20230234920A1, “Azirine Containing Compounds as Anti-Angiogenesis Agents and a Process for the Preparation Thereof” (COUNCIL OF SCIENTIFIC & INDUSTRIAL RESEARCH, priority 2020, published 2023).
Where two headings read alike, the source gives them in different places.

System: HUVECs
Assay: Capillary-like tube formation assay (tubulogenesis)
Type: cell-based, human
Conditions: for IC50: Homo sapiens, HUVEC, read-out: IC50 value; for remarks: remark on IC50 versus sunitinib
Method: FIG. 2 represents effect of Compound 1 on capillary tube formation of HUVECs. Endothelial cells in Matrigel were incubated with ECM basal medium in the presence of compound 1 at the indicated concentrations for 6 h. Cell viability was assessed by Calcein-AM dye added few min. before the completion of 6 h. then photographs at 10×magnification were taken using an inverted microscope. The tubule length of HUVECs was quantified by Leica QWin software. Tubule network formation is expressed as a percentage of that vehicle (0.1% DMSO) treated cells (control).
FIG. 9 represents effect of racemic mixture (chiral isomer 1-1 and chiral isomer 2-1) of Compound 1 on capillary tube formation of HUVECs. Endothelial cells seeded in matrigel were incubated at the indicated concentrations of compound 1 racemic mixtures (1-1 and 2-1) with ECM basal medium for 6 h. Calcein-AM treatment was added to the ECs few minutes before completion of 6 h and pictures were captured using an inverted microscope at 10×magnification. The tubular structures of HUVECs were measured using Leica QWin software and tubulogenesis was expressed as a % of that vehicle (0.1% DMSO) treated cells (control) well.
HUVEC cells were incubated with or without sunitinib (20 nM) for 6 h at indicated concentrations of chiral isomers of Compound 1 (1-1 and 2-1). Photographs were taken using an inverted microscope at 10×magnification after Calcein-AM treatment to the ECs few minutes before completion of 6 h. The tubule length of HUVECs was quantified by Leica QWin software represented as a % of that vehicle (0.1% DMSO) treated cells (control) well.
To examine the effect of Compound 1 on angiogenesis, capillary tube formation assay was performed on regular or reduced growth factor Matrigel, taking VEGF (50 ng/mL) treated cells as a positive control and sunitinib (50 nM) as a negative control (FIG. 2). HUVECs seeded onto the matrigel with compound 1 at different concentrations of (10 μM, 5 μM, 1 μM, 800 nM, 500 nM, 250 nM, 125 nM, 75 nM, 50 nM, 25 nM and 10 nM) were incubated for six hours.
HUVECs (Human Umbilical Vein Endothelial Cells) were seeded onto the pre-coated matrigel (CORNING; 354230) in 96 wells plate at the rate of 11000 cells/well in incomplete ECM basal medium. Control group received vehicle, VEGF at 50 ng/mL as a positive and sunitinib at 50 nM as a negative control were used. Compound 1 at different dose concentrations (10 μM, 5 μM, 1 μM, 800 nM, 500 nM, 250 nM, 100 nM, 75 nM, 50 nM and 25 nM) were employed on seeded HUVECs in incomplete medium. Post 6 h of incubation Calcein-AM (Invitrogen) was added to all the respective groups and then the tubule pattern was observed and photographs were taken using an inverted fluorescent microscope (DM 6000, Leica Microsystems, USA). Relative tubule lengths were measured using Leica Q-Win software version 3.5.1. (Leica Microsystems, Switzerland).

[1] = endothelial tubule network assay, anti-angiogenic activity

Compound	IC50 [1] [nM]	remarks	IC50 [nM]
COCCOC(=O)C1N=C1CCc1ccc(OC)cc1 (stereo not shown) [Compound 25, 2-Methoxyethyl 3-(4-methoxyphenethyl)-2H-azirine-2-carboxylate]	700		
CCOC(=O)C1N=C1CCCc1ccc2c(c1)OCO2 (stereo not shown) [Compound 43, Ethyl 3-(3-(benzo[d][1,3]dioxol-5-yl)propyl)-2H-azirine-2-carboxylate]	250		
CCOC(=O)C1N=C1/C=C/c1ccc(OC)cc1 (stereo not shown) [Compound 13, Ethyl (E)-3-(4-methoxystyryl)-2H-azirine-2-carboxylate]	100	comparable to sunitinib	
CCOC(=O)C1N=C1CCc1ccc2c(c1)OCO2 (stereo not shown) [Compound 41, Ethyl 3-(2-(benzo[d][1,3]dioxol-5-yl)ethyl)-2H-azirine-2-carboxylate]	1000		
CCOC(=O)C1N=C1CCCc1ccc2occc2c1 (stereo not shown) [Compound 40, Ethyl-3-(3-(benzofuran-5-yl)propyl)-2H-azirine-2-carboxylate]	500		
COc1ccc(CC2(C(=O)OCc3ccccc3)N=C2C)cc1 (stereo not shown) [Compound 18, Benzyl 2-(4-methoxybenzyl)-3-methyl-2H-azirine-2-carboxylate]	400		
COc1ccc(CCC2=NC2C(=O)OCCC(C)C)cc1 (stereo not shown) [Compound 24, Isopentyl 3-(4-methoxyphenethyl)-2H-azirine-2-carboxylate]	700		
CCOC(=O)C1N=C1CC/C=C/c1ccccc1 (stereo not shown) [Compound 11, Ethyl (E)-3-(4-phenylbut-3-en-1-yl)-2H-azirine-2-carboxylate]	450		
CCOP(=O)(OCC)C1N=C1CCc1ccc(OC)cc1 (stereo not shown) [Compound 49, Diethyl (3-(4-methoxyphenethyl)-2H-azirin-2-yl)phosphonate]			250
CCOC(=O)C1N=C1CCCc1ccc2oc3ccccc3c2c1 (stereo not shown) [Compound 44, Ethyl 3-(3-(dibenzo[b,d]furan-2-yl)propyl)-2H-azirine-2-carboxylate]	250		
COc1ccc(CCC2=NC2C#N)cc1 (stereo not shown) [Compound 48, 3-(4-Methoxyphenethyl)-2H-azirine-2-carbonitrile]			250
CCOC(=O)C1N=C1CCc1ccc2ccccc2c1 (stereo not shown) [Compound 27, Ethyl 3-(2-(naphthalen-2-yl)ethyl)-2H-azirine-2-carboxylate]	100	comparable to sunitinib	
CCOC(=O)C1N=C1CCc1cc(OC)c(OC)c(OC)c1 (stereo not shown) [Compound 12, Ethyl 3-(3,4,5-trimethoxyphenethyl)-2H-azirine-2-carboxylate]	200		
CCCCCOC(=O)C1N=C1CCc1ccc(OC)cc1 (stereo not shown) [Compound 23, Pentyl 3-(4-methoxyphenethyl)-2H-azirine-2-carboxylate]	600		
COc1ccc(CCC2=NC2c2nnn[nH]2)cc1 (stereo not shown) [Compound 51, 5-(3-(4-Methoxyphenethyl)-2H-azirin-2-yl)-1H-tetrazole]	100	comparable to sunitinib	
CCOC(=O)C1N=C1CCc1ccc(F)cc1 (stereo not shown) [Compound 10, Ethyl 3-(4-fluorophenethyl)-2H-azirine-2-carboxylate]	600		
COc1ccc(CCC2=NC2C(=O)OC(C)(C)C)cc1 (stereo not shown) [Compound 17, tert-Butyl 3-(4-methoxyphenethyl)-2H-azirine-2-carboxylate]	400		
CCOC(=O)C1N=C1CCc1c2ccccc2cc2ccccc12 (stereo not shown) [Compound 33, Ethyl 3-(2-(anthracen-9-yl)ethyl)-2H-azirine-2-carboxylate]	50	comparable to sunitinib	
CCOC(=O)C1N=C1CCc1ccc(OC(F)(F)F)cc1 (stereo not shown) [Compound 28, Ethyl 3-(4-(trifluoromethoxy)phenethyl)-2H-azirine-2-carboxylate]	50	comparable to sunitinib	
CCOC(=O)C1N=C1CCc1ccc(N(C)C)cc1 (stereo not shown) [Compound 47, Ethyl 3-(4-(dimethylamino)phenethyl)-2H-azirine-2-carboxylate]	500		
